Molecular target: T1, CCL21 (CC chemokine ligand 21), truncated (Homo sapiens, UniProt O00585)
T1 sequence (O00585 24-102): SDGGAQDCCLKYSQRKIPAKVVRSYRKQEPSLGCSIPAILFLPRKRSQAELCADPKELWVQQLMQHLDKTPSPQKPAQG
Experiment: 2D 1H-15N HSQC NMR titration
Type: binding

With `N[C@@H](Cc1ccc(OS(=O)(=O)O)cc1)C(=O)O` [sY, sulfotyrosine] the Kd was roughly 38.9 mM.

Source: PMC5498006 (Biochemistry, 2016)
